In publication PMC7272617 (Scientific Reports, 2020):
≈ marks a conversion by molar mass, not a printed value.

Columns and labels:
Assay in all cases: microbe, parasite or virus in culture
[1] = tested on: MDR P. aeruginosa clinical isolate No.2; settings: Pseudomonas aeruginosa
[2] = tested on: MDR P. aeruginosa clinical isolate No.13; settings: Pseudomonas aeruginosa
[3] = tested on: MDR P. aeruginosa clinical isolate No.7; settings: Pseudomonas aeruginosa
[4] = tested on: MDR P. aeruginosa clinical isolate No.3; settings: Pseudomonas aeruginosa
[5] = tested on: MDR P. aeruginosa clinical isolate No.5; settings: Pseudomonas aeruginosa
[6] = tested on: MDR P. aeruginosa clinical isolate No.12; settings: Pseudomonas aeruginosa
[7] = tested on: MDR P. aeruginosa clinical isolate No.9; settings: Pseudomonas aeruginosa
[8] = tested on: MDR P. aeruginosa clinical isolate No.10; settings: Pseudomonas aeruginosa
[9] = tested on: MDR P. aeruginosa clinical isolate No.8; settings: Pseudomonas aeruginosa
[10] = tested on: MDR P. aeruginosa clinical isolate No.1; settings: Pseudomonas aeruginosa
[11] = tested on: MDR P. aeruginosa clinical isolate No.11; settings: Pseudomonas aeruginosa
[12] = tested on: MDR P. aeruginosa clinical isolate No.14; settings: Pseudomonas aeruginosa
[13] = tested on: MDR P. aeruginosa clinical isolate No.4; settings: Pseudomonas aeruginosa
[14] = tested on: MDR P. aeruginosa clinical isolate No.6; settings: Pseudomonas aeruginosa
[15] = tested on: Pseudomonas aeruginosa ATCC 27853; settings: ATCC27853, 24 h

- MIC [1]: > 125 µg/mL
- MIC [2]: 62.5 µg/mL (≈ 209 µM)
- MIC [3]: > 125 µg/mL
- MIC [4]: > 125 µg/mL
- MIC [5]: 125 µg/mL (≈ 418 µM)
- MIC [6]: 125 µg/mL (≈ 418 µM)
- MIC [7]: > 125 µg/mL
- MIC [8]: > 125 µg/mL
- MIC [9]: 125 µg/mL (≈ 418 µM)
- MIC [10]: > 125 µg/mL
- MIC [11]: > 125 µg/mL
- MIC [12]: > 125 µg/mL
- MIC [13]: > 125 µg/mL
- MIC [14]: > 125 µg/mL
- MIC [15]: ≤ 0.98 µg/mL
SMILES: C[C@@H](O)[C@H]1C(=O)N2C(C(=O)O)=C(SCCN=CN)C[C@H]12 [Imipenem]
